In one assay the target is FimH (Escherichia coli, UniProt P08191). To be noted: peptides coated at 2 nmol/50 μl, FimC protein at 0.1 nmol/50 μl; increasing concentrations of FimH (5–25 pmol/well); FIG. 12. The procedure:
(§1) The peptides were diluted in phosphate buffered saline (PBS) (120 mM NaCl, 2.7 mM KCl, 10 mM, […], pH 7.4) to 2 nmol/50 μl. FimC protein was diluted to 0.1 nmol/50 μl and coated overnight onto microtiter wells with 50 μl/well at 4° C. The ELISA assay was carried out as described in Kuehn et al., 1993 and Hung et al., 1996. Briefly, the wells were washed three times with PBS and blocked with 3% Bovine Serum Albumin (BSA) in PBS for two hours at 25° C. Then the wells were washed three times with PBS. The FimC-FimH co-complex was incubated in 3 M urea to separate the two proteins. Pure FimH in 3 M urea was collected from the flow through of a Source 15S column (Pharmacia). See Barnhart et al., PNAS USA 97: 7709–7714 (2000). The wells were incubated with 50 μl of FimH in 3% BSA-PBS diluted to 5–25 pmol/well FimH for 45 minutes at 25° C. The wells were washed 3 times with PBS followed by incubation with a 1:1000 dilution of mouse anti-FimH antibodies in 3% BSA-PBS for 45 minutes at 25° C. The wells were washed 3 times with PBS followed by incubation with a 1:1000 dilution of goat antiserum to mouse IgG (Sigma) conjugated to alkaline phosphatase diluted in 3% BSA-PBS for 45 minutes at 25° C. The wells were washed 3 times with PBS and washed 3 times with developing buffer (10 mM diethanolamine, 0.4 mM MgCl2). The ELISA was developed by adding 50 μl of substrate (50 μl of filtered 1 mg/ml p-nitrophenyl phosphate; Sigma) in developing buffer. The reaction was incubated for 1 hour at 25° C. in the dark and the absorbance at 405 nm was read.
(§2) The competition assays were carried out similarly. FimC was coated onto microtiter wells at 0.1 nmol/well. FimH at 5 pmol/well in 3% BSA-PBS was added to the FimC coated wells in the presence or the absence of the FimC or FimG peptide at 2 nmol/well or the indicated peptide concentration. Further, increasing concentrations of FimH were incubated with constant concentrations of the FimC or FimG peptides or the FimC protein immobilized on microtiter wells. […] FimH was added to the FimC coated wells in the presence or absence of peptides to FimC or FimG.

The target of the next assay is FimH binding to FimC (Escherichia coli, UniProt P08191). Conditions: FimC coated at 0.1 nmol/well, FimH 5 pmol/well; for Inhibition of FimH binding to FimC immobilized on microtiter wells: peptide at 2 nmol/well (tested concentration), FIG. 14; for FimH binding to immobilized FimC in the presence of increasing concentrations of peptide: FIG. 13. The procedure: as §1, §2

Where two headings read alike, the source gives them in different places.

Sequence of FimH binding to FimC (P08191 22-300): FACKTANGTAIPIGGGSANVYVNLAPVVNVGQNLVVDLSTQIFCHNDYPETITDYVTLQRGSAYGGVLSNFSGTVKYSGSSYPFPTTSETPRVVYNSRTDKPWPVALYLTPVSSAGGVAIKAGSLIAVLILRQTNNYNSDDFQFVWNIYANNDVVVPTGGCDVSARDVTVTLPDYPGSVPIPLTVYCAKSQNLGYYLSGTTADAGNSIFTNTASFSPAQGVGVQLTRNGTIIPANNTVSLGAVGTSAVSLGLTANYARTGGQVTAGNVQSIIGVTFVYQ
Sequence of FimH (P08191 22-300): as above

For DVTITVNGK [FimG peptide], the “FimH binding to the immobilized peptide or FimC protein (ELISA, anti-FimH antibodies, absorbance at 405 nm)” value at FimH was “bound well”. Further, the “Inhibition of FimH binding to FimC immobilized on microtiter wells” value at FimH binding to FimC is “did not inhibit”.

As to NTLQLAIISR [FimC peptide], the “FimH binding to the immobilized peptide or FimC protein (ELISA, anti-FimH antibodies, absorbance at 405 nm)” value at FimH was “bound well”. Besides, the “FimH binding to immobilized FimC in the presence of increasing concentrations of peptide” value is listed as “further decreased the ability of FimH to bind to FimC” on FimH binding to FimC and “inhibit FimH binding to FimC” at FimH binding to FimC (listed as FimC polypeptide). Further, the “Inhibition of FimH binding to FimC immobilized on microtiter wells” value on FimH binding to FimC is “inhibited the ability of FimH to bind to FimC”.

Values taken from US7041465B1 (priority 1999, dated 2006).
